Earlier results as cited in patent US20070212498A1, “Optical film, antireflection film, polarizing plate, display apparatus and method for manufacturing optical film” (FUJIFILM Corporation, priority 2006, published 2007).

Details: pKa of the conjugate acid, values in an aqueous solution (Kagaku Binran Kiso Hen)

Row | pKa | SMILES
1 | 7.7 | CCC1CNCCO1 (centres unmarked) [b-13, 2-Ethyl morpholine]
2 | 7.8 | CC1CNCCO1 (centres unmarked) [b-14, 2-Methyl morpholine]
